From ChEMBL document CHEMBL2046411, “Virtual Screening and X-ray Crystallography for Human Kallikrein 6 Inhibitors with an Amidinothiophene P1 Group” (ACS Med Chem Lett, 2012)

Molecular target: Kallikrein-6 (Homo sapiens, UniProt Q92876)
Assay: Inhibition of N-terminus His6-tagged human kallikrein 6 expressed in baculovirus infected insect sf9 cells using Boc-Phe-Ser-Arg-AMC as substrate by fluorescence analysis

IC50: 1500 nM
Structure (SMILES): COc1ccc2ccc(S(=O)(=O)N(Cc3ccccc3)[C@H]3CCN(Cc4ccc(C(=N)N)s4)C3=O)cc2c1
